Measured values as given in ChEMBL document CHEMBL1132082, “Nonsteroidal androgen receptor agonists based on 4-(trifluoromethyl)-2H-pyrano[3,2-g]quinolin-2-one” (Bioorg Med Chem Lett, 1999).

Columns and labels:
[1] = molecular target: T1, Mineralocorticoid receptor (Homo sapiens) (UniProt P08235); assay: In vitro antagonistic activity against human mineralocorticoid receptor (hMR); type: functional
T1 sequence (whole entry): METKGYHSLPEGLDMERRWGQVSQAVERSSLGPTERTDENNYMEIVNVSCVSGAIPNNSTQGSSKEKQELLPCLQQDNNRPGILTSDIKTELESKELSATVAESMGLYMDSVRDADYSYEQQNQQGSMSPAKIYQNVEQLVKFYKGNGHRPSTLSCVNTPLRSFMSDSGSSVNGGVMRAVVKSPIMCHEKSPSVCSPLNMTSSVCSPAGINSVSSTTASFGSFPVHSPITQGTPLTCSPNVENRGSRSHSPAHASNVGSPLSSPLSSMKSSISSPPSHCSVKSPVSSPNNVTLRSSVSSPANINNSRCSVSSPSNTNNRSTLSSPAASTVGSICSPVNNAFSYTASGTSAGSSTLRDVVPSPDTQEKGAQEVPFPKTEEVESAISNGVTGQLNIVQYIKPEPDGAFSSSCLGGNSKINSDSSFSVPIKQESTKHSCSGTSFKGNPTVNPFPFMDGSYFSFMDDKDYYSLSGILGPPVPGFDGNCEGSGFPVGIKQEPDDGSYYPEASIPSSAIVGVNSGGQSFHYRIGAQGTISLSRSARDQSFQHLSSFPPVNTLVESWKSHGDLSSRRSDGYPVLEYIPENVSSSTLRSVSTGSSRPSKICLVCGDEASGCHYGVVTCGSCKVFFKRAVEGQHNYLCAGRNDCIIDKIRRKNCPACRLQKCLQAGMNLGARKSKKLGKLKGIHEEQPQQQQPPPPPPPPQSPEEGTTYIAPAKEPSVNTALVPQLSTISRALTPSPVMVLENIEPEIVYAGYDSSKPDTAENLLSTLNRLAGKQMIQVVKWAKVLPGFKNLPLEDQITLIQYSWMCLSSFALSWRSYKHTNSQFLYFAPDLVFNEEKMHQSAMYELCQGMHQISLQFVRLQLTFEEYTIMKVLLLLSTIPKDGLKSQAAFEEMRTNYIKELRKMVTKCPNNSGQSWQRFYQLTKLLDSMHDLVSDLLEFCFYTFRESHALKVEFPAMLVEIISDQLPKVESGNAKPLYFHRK

Estrogen receptor [2] = molecular target: T2, Estrogen receptor (Homo sapiens, UniProt Q92731+P03372); assay: In vitro antagonistic activity against human estrogen receptor (hER); type: functional
Androgen receptor [3] = molecular target: T3, Androgen receptor (Homo sapiens, UniProt P10275)
T3 sequence (P10275 whole entry): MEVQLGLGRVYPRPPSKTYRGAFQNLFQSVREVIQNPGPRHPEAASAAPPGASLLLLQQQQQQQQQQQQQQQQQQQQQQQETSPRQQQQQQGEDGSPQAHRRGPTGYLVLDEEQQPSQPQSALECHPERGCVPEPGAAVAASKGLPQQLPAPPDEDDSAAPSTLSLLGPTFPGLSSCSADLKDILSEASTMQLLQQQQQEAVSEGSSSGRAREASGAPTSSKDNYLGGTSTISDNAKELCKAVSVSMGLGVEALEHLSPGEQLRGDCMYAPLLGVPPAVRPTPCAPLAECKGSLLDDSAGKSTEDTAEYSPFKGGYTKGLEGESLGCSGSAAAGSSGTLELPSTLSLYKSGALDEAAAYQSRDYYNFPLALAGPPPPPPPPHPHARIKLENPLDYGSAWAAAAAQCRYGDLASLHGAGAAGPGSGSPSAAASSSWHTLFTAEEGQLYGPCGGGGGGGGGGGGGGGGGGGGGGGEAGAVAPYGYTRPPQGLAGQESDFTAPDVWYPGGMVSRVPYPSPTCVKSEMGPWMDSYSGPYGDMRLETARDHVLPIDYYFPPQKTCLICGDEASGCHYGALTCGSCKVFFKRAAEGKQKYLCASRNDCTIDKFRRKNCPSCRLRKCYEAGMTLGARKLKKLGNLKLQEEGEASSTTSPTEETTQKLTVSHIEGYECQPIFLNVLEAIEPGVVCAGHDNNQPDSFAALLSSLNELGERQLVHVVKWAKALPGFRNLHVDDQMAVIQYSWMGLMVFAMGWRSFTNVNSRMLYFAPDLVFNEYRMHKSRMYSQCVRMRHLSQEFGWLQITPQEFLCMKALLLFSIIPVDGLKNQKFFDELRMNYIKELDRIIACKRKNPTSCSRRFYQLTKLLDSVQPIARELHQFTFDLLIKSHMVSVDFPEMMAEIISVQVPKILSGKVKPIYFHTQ

Androgen receptor [4] = molecular target: T3, Androgen receptor; assay: biochemical
Description: In vitro binding affinity at human androgen receptor transfected into COS cells.

Androgen receptor [5] = molecular target: T3, Androgen receptor; remark: listed apart in the source
Description: In vitro agonistic activity against human androgen receptor using cotransfection assay in CV-1 cells.

Progesterone receptor = molecular target: T4, Progesterone receptor (Homo sapiens, UniProt P06401); assay: (§1) In vitro antagonistic activity against human progesterone receptor (hPR); type: functional
T4 sequence (P06401 whole entry): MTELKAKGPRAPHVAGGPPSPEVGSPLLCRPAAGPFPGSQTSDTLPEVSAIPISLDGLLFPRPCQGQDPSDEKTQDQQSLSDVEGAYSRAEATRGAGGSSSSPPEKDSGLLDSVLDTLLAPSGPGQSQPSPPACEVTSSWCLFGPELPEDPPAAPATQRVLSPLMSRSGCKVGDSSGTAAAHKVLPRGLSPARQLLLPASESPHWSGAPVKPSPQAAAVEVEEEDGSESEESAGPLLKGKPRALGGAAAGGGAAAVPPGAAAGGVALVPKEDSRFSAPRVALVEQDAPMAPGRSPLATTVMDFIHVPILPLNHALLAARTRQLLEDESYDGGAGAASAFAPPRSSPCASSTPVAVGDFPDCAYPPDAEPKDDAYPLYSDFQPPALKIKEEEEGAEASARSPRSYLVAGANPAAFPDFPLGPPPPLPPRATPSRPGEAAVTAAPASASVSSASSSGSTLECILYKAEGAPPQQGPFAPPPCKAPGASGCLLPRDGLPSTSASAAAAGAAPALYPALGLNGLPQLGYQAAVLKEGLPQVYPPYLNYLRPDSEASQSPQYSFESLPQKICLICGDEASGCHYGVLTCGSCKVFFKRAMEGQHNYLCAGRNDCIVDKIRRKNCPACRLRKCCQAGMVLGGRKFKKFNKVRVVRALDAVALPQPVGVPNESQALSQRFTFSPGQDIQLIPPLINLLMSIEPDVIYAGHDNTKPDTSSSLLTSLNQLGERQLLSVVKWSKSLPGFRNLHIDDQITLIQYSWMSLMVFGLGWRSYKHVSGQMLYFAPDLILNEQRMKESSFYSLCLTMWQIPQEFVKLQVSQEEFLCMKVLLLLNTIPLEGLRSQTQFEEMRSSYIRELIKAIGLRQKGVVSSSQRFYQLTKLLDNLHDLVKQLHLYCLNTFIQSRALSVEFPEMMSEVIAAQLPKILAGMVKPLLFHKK

[6] = molecular target: T5, Progesterone receptor (Homo sapiens) (UniProt P06401); assay: as §1; type: functional
T5 sequence (whole entry): T4 sequence (P06401 whole entry)

Estrogen receptor [7] = molecular target: T2, Estrogen receptor; assay: In vitro antagonistic activity against human estrogen receptor (hER); not active; type: functional

Work on `CCC1Nc2cc3oc(=O)cc(C(F)(F)F)c3cc2CC1C` (stereo not given) yielded an Efficacy [1] of under 20%, an Efficacy (Estrogen receptor [2]) of under 20% and an IC50 (Androgen receptor [3]) of over 10 nM. It also gave an IC50 (Androgen receptor [4]) of 7 nM, an EC50 (Androgen receptor [5]) of 1 nM and an IC50 (Progesterone receptor) of 440 nM. For the same compound, the Efficacy [6] was 88% and the IC50 (Estrogen receptor [7]) was over 10000 nM.

For `O=c1cc(C(F)(F)F)c2cc3c(cc2o1)NCCC3C(F)(F)F` (stereo not given), the Efficacy [1] was under 20%, the Efficacy (Estrogen receptor [2]) was under 20% and the IC50 (Androgen receptor [3]) was over 10 nM. It also gave an IC50 (Androgen receptor [4]) of 2 nM, an EC50 (Androgen receptor [5]) of 2 nM and an IC50 (Progesterone receptor) of 270 nM. The Efficacy [6] was 68% and the IC50 (Estrogen receptor [7]) was over 10000 nM.

With `CCC1CCNc2cc3oc(=O)cc(C(F)(F)F)c3cc21` (stereo not given) the Efficacy [1] was under 20%, the Efficacy (Estrogen receptor [2]) was under 20% and the IC50 (Androgen receptor [3]) was over 10 nM. It also gave an IC50 (Androgen receptor [4]) of 1 nM, an EC50 (Androgen receptor [5]) of 2 nM and an IC50 (Progesterone receptor) of 200 nM. The Efficacy [6] was 91% and the IC50 (Estrogen receptor [7]) was over 10000 nM.

Work on `CC1CCNc2cc3oc(=O)cc(C(F)(F)F)c3cc21` (stereo not given) yielded an Efficacy [1] of under 20%, an Efficacy (Estrogen receptor [2]) of under 20% and an IC50 (Androgen receptor [3]) of over 10 nM. For the same compound, the IC50 (Androgen receptor [4]) was 1 nM, the EC50 (Androgen receptor [5]) was 2 nM and the IC50 (Progesterone receptor) was 280 nM. For the same compound, the Efficacy [6] was 83% and the IC50 (Estrogen receptor [7]) was over 10000 nM.

`CCCC1CCNc2cc3oc(=O)cc(C(F)(F)F)c3cc21` (stereo not given) was tested, and the Efficacy [1] was under 20%, the Efficacy (Estrogen receptor [2]) was under 20% and the IC50 (Androgen receptor [3]) was over 10 nM. For the same compound, the IC50 (Androgen receptor [4]) was 5 nM, the EC50 (Androgen receptor [5]) was 5 nM and the IC50 (Progesterone receptor) was 106 nM. It also gave an Efficacy [6] of 89% and an IC50 (Estrogen receptor [7]) of over 10000 nM.
